A short description of series [1]: Corrosion rate by LPR sweep, copper coupons in synthetic water, 50° C., 1 ppm free chlorine after 0.5 hrs (Examples 1 and 2). Particulars: 2 ppm; for corrosion inhibition properties over the entire 18 hour period (in words): Example 2. The procedure: (§1) One liter samples of synthetic water were each dosed with the compositions in Table 1.
(§2) The apparatus used for the corrosion testing was a Gamry Multiport Corrosion Cell and Gamry Reference 600+potentiostat with multiplexor. Copper coupons (CDA110) were added to the sample cells containing neutral water (pH 7.5), and the cells were dosed with 50 ppm of scale inhibitor (co-polymer and 2-phosphonobutane-1,2,4-yricarboxylic acid) and heated to 50° C. and maintained at this temperature throughout the testing. The cells were continuously stirred at a speed of 350 rpm. A cylindrical working electrode was submerged into the test solutions, and an LPR sweep (linear polarization resistance) was performed every hour for 18 hours. After the 0.5 hrs mark, 1 ppm of free chlorine was dosed into the corrosion cell.
(§3) One liter samples of the synthetic water described above with respect to Example 1 were each dosed with the compositions in Table 5 and processed under conditions similar to Example 1.

A short description of series [2]: Cl2 demand in the corrosion cell test (Examples 1 and 2). The format is physicochemical. Particulars: 2 ppm. As for the experimental part: as §1, §2, §3

As to “Disodium Coco Imidazoline Dicarboxylate [DCIMDCC]”, in series [1], the “CR Average (10-18 hrs)” value worked out at 0.025 mpy. Further, in series [1], the “CR Peak” value worked out at 0.267 mpy. The corrosion rate in series [1] (0 hrs) worked out at 0.0395 mpy; in series [1] (1 hrs), 0.2665 mpy; in series [1] (2 hrs) it was 0.1537 mpy; in series [1] (3 hrs) it was 0.0908 mpy; in series [1] (4 hrs) it was 0.0856 mpy; in series [1] (5 hrs) it was 0.0744 mpy. In addition, the corrosion rate was 0.0600 mpy in series [1] (6 hrs); 0.0499 mpy in series [1] (7 hrs); 0.0409 mpy in series [1] (8 hrs); 0.0375 mpy in series [1] (9 hrs); 0.0339 mpy in series [1] (10 hrs); 0.0313 mpy in series [1] (11 hrs). In addition, the corrosion rate in series [1] (12 hrs) is 0.0283 mpy; in series [1] (13 hrs) it was 0.0266 mpy; in series [1] (14 hrs), 0.0243 mpy; in series [1] (15 hrs) it was 0.0224 mpy; in series [1] (16 hrs), 0.0209 mpy; in series [1] (17 hrs) it was 0.0196 mpy. Besides, the corrosion rate in series [1] (18 hrs) came out at 0.0188 mpy. In addition, the “Cl2 Demand” value in series [2] is given as 0.9 mg/L.

For Disodium Cocoamphodiacetate [DCADAA], the “CR Average (10-18 hrs)” value in series [1] is 0.036 mpy. Besides, in series [1], the “CR Peak” value is recorded as 0.180 mpy. In addition, the corrosion rate amounted to 0.0198 mpy in series [1] (0 hrs); 0.1804 mpy in series [1] (1 hrs); 0.1576 mpy in series [1] (2 hrs); 0.1608 mpy in series [1] (3 hrs); 0.1140 mpy in series [1] (4 hrs); 0.1360 mpy in series [1] (5 hrs). Moreover, the corrosion rate was determined as 0.0910 mpy in series [1] (6 hrs); 0.0780 mpy in series [1] (7 hrs); 0.0629 mpy in series [1] (8 hrs); 0.0545 mpy in series [1] (9 hrs); 0.0516 mpy in series [1] (10 hrs); 0.0459 mpy in series [1] (11 hrs). The corrosion rate in series [1] (12 hrs) stood at 0.0419 mpy; in series [1] (13 hrs) it was 0.0375 mpy; in series [1] (14 hrs), 0.0349 mpy; in series [1] (15 hrs) it was 0.0316 mpy; in series [1] (16 hrs) it was 0.0290 mpy; in series [1] (17 hrs), 0.0246 mpy. Also, the corrosion rate in series [1] (18 hrs) came out at 0.0252 mpy. Besides, the “corrosion inhibition properties over the entire 18 hour period (in words)” value in series [1] was “good corrosion inhibition properties”. Besides, the “Cl2 Demand” value in series [2] came out at 0.6 mg/L.

Sodium Cocoamphoacetate [SCAA]: the “CR Average (10-18 hrs)” value in series [1] is reported as 0.017 mpy. The “CR Peak” value in series [1] came to 0.197 mpy. Besides, the corrosion rate in series [1] (0 hrs) is given as 0.0217 mpy; in series [1] (1 hrs) it was 0.1969 mpy; in series [1] (2 hrs), 0.0988 mpy; in series [1] (3 hrs) it was 0.0761 mpy; in series [1] (4 hrs) it was 0.0602 mpy; in series [1] (5 hrs), 0.0506 mpy. The corrosion rate in series [1] (6 hrs) worked out at 0.0473 mpy; in series [1] (7 hrs), 0.0347 mpy; in series [1] (8 hrs), 0.0293 mpy; in series [1] (9 hrs), 0.0257 mpy; in series [1] (10 hrs), 0.0231 mpy; in series [1] (11 hrs) it was 0.0212 mpy. Also, the corrosion rate in series [1] (12 hrs) is on record as 0.0191 mpy; in series [1] (13 hrs) it was 0.0177 mpy; in series [1] (14 hrs) it was 0.0166 mpy; in series [1] (15 hrs) it was 0.0156 mpy; in series [1] (16 hrs) it was 0.0142 mpy; in series [1] (17 hrs), 0.0139 mpy. For the same substance, in series [1] (18 hrs), the corrosion rate stood at 0.0128 mpy. Further, the “corrosion inhibition properties over the entire 18 hour period (in words)” value in series [1] is recorded as “good corrosion inhibition properties”. Besides, the “Cl2 Demand” value in series [2] turned out to be 1.0 mg/L.

For the origin of these results see US20250270707A1, “NON-TRIAZOLE IMIDAZOLINE AND AMIDE COMPOUNDS AND METHODS FOR INHIBITING CORROSION IN INDUSTRIAL WATER TREATMENT” (CHEMTREAT, INC., priority 2023, published 2025).
